Values after ≈ are worked out from the molar mass of the structure shown. Where two headings read alike, the source gives them in different places.
Key:
[1] = Diuretic activity (urinary excretion) in rats; format: in vivo; settings: standard dose of 10 mg/kg; for Urinary excretion K^30: potassium, control 0.53; for Urinary excretion Na^+ /K^ +: ratio, control 2.9; for Urinary excretion Na^30: sodium, control 1.5; for Urinary excretion: urine volume, control 9.5
Method: Diuretic activity was evaluated according to the method described by W. L. Lipschits et al., J. Pharmacol. Exp. Ther., 79, 97 (1943). The results in rats are shown in Table I, where the data for a standard dose of 10 mg/kg is listed for the purpose of comparison.

rat aortic strips = experiment: Vasodilating activity: relaxation of isolated rat aortic strips contracted with potassium chloride; settings: read-out: Median effective concentration (ED50)
Method: Vasodilating activity was examined by use of the method described by N. Tada et al., J. Pharmacol. Exp. Ther., 191, 139 (1974). The rat aortic strips were isolated and contracted using 30 mM of potassium chloride. Dose dependent relaxation in the aortic strips was observed by adding the test compounds. At the end of each experiment, papaverine in a concentration of 3×10^-5 g/ml was added and the relaxation induced was taken as 100%. Median effective concentration (ED50) was obtained from dose response curves.

[2] = rat aortic strips contracted with 30 mM potassium chloride, relaxation by papaverine 3×10^-5 g/ml taken as 100%

Structure (SMILES) | Urinary excretion K^30 [1] [mequiv/kg] | Urinary excretion Na^+ /K^ + [1] | Urinary excretion Na^30 [1] [mequiv/kg] | Urinary excretion [1] [mL/kg] | EC50 (rat aortic strips; [2]) [µg/mL] | EC50 (rat aortic strips; Rattus norvegicus) [µg/mL]
CCCCN1C2=NCCN2C(c2ccccc2)c2cc(Cl)ccc21 (stereo not shown) [7-Cl, H, H, n-Bu, H, CH2 CH2, 7-chloro-10-(n-butyl)-5-phenyl-2,3,5,10-tetrahydroimidazo[2,1-b]quinazoline] | 0.86 | 5.3 | 4.5 | 31.1 |  | 
COc1ccc2c(c1)C(c1ccccc1)N1CCN=C1N2CC1CC1 (stereo not shown) [7-MeO, H, H, [drawing 6], H, CH2 CH2, 10-Cyclopropylmethyl-7-methoxy-5-phenyl-2,3,5,10-tetrahydroimidazo[2,1-b]quinazoline] |  |  |  |  | 1 (≈ 3 µM) | 
CN1C2=NCCCN2C(c2ccccc2)c2cc(Cl)ccc21 (stereo not shown) [8-Cl, H, H, Me, H, CH2 CH2 CH2, 8-chloro-11-methyl-6-phenyl-3,4,6,11-tetrahydro-2H-pyrimido[2,1-b]quinazoline] | 0.97 | 5.6 | 5.6 | 38.3 |  | 
Clc1ccc2c(c1)N(CC1CC1)C1=NCCN1C2c1ccccc1 (stereo not shown) [8-Cl, H, H, [drawing 3], H, CH2 CH2, 8-Chloro-10-cyclopropylmethyl-5-phenyl-2,3,5,10-tetrahydroimidazo[2,1-b]quinazoline] | 0.92 | 4.0 | 3.7 | 26.8 | 0.24 (≈ 0.71 µM) | 
CCCCN1C2=NCCCN2C(c2ccccc2)c2cc(Cl)ccc21 (stereo not shown) [8-Cl, H, H, n-Bu, H, CH2 CH2 CH2, 8-Chloro-11-(n-butyl)-6-phenyl-3,4,6,11-tetrahydro-2H-pyrimido[2,1-b]quinazoline] |  |  |  |  | 0.27 (≈ 0.763 µM) | 
Clc1ccc2c(c1)N(CC1CC1)C1=NCCCN1C2c1ccccc1 (stereo not shown) [9-Cl, H, H, [drawing 4], H, CH2 CH2 CH2, 9-Chloro-11-cyclopropylmethyl-6-phenyl-3,4,6,11-tetrahydro-2H-pyrimido[2,1-b]quinazoline] | 0.78 | 6.1 | 4.7 | 34.3 | 0.29 (≈ 0.824 µM) | 
CN1C2=NCCN2C(O)(c2ccc(Cl)cc2)c2ccccc21 (stereo not shown) [H, H, p-Cl, Me, OH, CH2 CH2, 5-(p-chlorophenyl)-5-hydroxy-10-methyl-2,3,5,10-tetrahydroimidazo[2,1-b]quinazoline] | 0.84 | 5.2 | 4.4 | 32.6 |  | 
COc1ccc(Cc2nccc3cc(OC)c(OC)cc23)cc1OC [Papaverine, reference compound] |  |  |  |  |  | 4.6 (≈ 13.6 µM)

From patent US4228167A, “Diuretic and vasodilating tricyclic quinazolines” (Sumitomo Chemical Company, Limited, priority 1977, dated 1980)
